The source of these data is US6211210A, “Diphenyl-1,2,3-thiadiazol-3-oxides, compositions and methods of use” (Merck Frosst Canada & Co., priority 2000, dated 2001).

One experiment deals with T1, COX-1 (Homo sapiens, UniProt P23219).
T1 construct: platelets in whole blood contain a large amount of the COX-1 enzyme; endogenous in cells; host or cells: platelets in fresh human whole blood
The experiment can be described thus: Human whole blood assay: COX-1 (clotting-induced TxB2 production). Format: cell-based. Conditions: clotting-induced TxB2, 1 hour at 37° C. The text has this:
(§1) As well, platelets in whole blood contain a large amount of the COX-1 enzyme. Immediately following blood clotting, platelets are activated through a thrombin-mediated mechanism. This reaction results in the production of thromboxane B2 (TxB2) via activation of COX-1. Thus, the effect of test compounds on TxB2 levels following blood clotting can be examined and used as an index for COX-1 activity. Therefore, the degree of selectivity by the test compound can be determined by measuring the levels of PGE2 after LPS induction (COX-2) and TxB2 following blood clotting (COX-1) in the same assay.
Fresh blood was collected into vacutainer tubes containing no anticoagulants. […] The tubes were vortexed and incubated at 37° C. for 1 hour to allow blood to clot. Serum was obtained by centrifugation (12,000×g for 5 min). Serum protein is precipitated by mixing a 100 μL aliquot of serum with 400 μL of methanol.
(§2) In the assay, inhibition is determined by measuring the amount of prostaglandin E2 (PGE2) synthesized in the presence of arachidonic acid, COX-1 or COX-2 and a putative inhibitor.

For experiment [1], the system named is carrageenan paw edema, rats. The experiment can be described thus: Rat paw edema assay (carrageenan). Format: in vivo, Male Sprague-Dawley rats. Conditions: po, 1 hr before carrageenan, paw volume 3 hr later, read-out: ED50 (edema inhibition in rat paw). The procedure: Male Sprague-Dawley rats (150-200 g) were fasted overnight and were given, po, either vehicle (1% methocel or 5% Tween 80), or a test compound. One hr later, a line was drawn using a permanent marker at the level above the ankle in one hind paw to define the area of the paw to be monitored. The paw volume (V0) was measured using a plethysmometer (Ugo-Basile, Italy) based on the principle of water displacement. The animals were then injected subplantarly with 50 ,l of 1% carrageenan solution in saline (FMC Corp, Maine) into the paw using an insulin syringe with a 25-gauge needle (i.e., 500 μg carrageenan per paw). Three hr later, the paw volume (V3) was measured and the increases in paw volume (V3 -V0) were calculated. The animals were sacrificed by CO2 asphyxiation and the absence or presence of stomach lesions scored. Data were compared with the vehicle-control values and percent inhibition calculated. ED50 values were used for comparison. All treatment groups were coded to eliminate observer bias.

The next experiment concerns the target T2, COX-2 (Homo sapiens, UniProt P35354).
T2 construct: incubation of human whole blood with LPS which induces COX-2; endogenous in cells
T2 sequence (P35354 18-604): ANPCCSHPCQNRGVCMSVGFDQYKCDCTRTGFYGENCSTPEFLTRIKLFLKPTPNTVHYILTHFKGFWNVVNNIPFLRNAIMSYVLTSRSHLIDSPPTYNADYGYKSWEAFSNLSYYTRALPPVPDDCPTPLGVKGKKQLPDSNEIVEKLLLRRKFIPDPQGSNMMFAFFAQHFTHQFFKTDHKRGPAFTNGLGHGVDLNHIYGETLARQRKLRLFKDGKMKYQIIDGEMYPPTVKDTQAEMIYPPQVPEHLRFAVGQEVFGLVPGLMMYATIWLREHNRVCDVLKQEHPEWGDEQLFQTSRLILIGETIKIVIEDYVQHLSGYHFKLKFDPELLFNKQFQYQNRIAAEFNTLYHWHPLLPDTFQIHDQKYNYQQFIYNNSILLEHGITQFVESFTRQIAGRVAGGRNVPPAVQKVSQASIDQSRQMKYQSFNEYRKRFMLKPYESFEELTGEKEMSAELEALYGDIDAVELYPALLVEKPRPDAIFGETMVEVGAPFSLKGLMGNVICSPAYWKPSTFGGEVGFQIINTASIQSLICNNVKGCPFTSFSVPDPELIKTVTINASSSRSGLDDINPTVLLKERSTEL
The experiment can be described thus: Human whole blood assay: COX-2 (LPS-induced PGE2 production). Format: cell-based. Conditions: LPS-induced PGE2, 24 hours at 37° C.
From the text: as §1
Fresh blood was collected in heparinized tubes by venipuncture from both male and female volunteers. The subjects had no apparent inflammatory conditions and had not taken any NSAIDs for at least 7 days prior to blood collection. Plasma was immediately obtained from a 2 mL blood aliquot to use as blank (basal levels of PGE2). […] Five hundred μL aliquots of blood were incubated with either […] vehicle (DMSO) or 2 μL of a test compound at final concentrations varying from 10 nM to 30 μM for 24 hours at 37° C. At the end of the incubation, the blood was centrifuged at 12,000×g for 5 minutes to obtain plasma. Protein in the plasma is precipitated by mixing a 100 μL aliquot of plasma with 400 μL of methanol. The supernatant was assayed for PGE2 using a radioimmunoassay kit (Amersham, RPA#530) after conversion of PGE2 to its methyl oximate derivative according to the manufacturer's procedure.
as §2

SMILES strings stand for the structures.

T1 sequence (P23219 24-599): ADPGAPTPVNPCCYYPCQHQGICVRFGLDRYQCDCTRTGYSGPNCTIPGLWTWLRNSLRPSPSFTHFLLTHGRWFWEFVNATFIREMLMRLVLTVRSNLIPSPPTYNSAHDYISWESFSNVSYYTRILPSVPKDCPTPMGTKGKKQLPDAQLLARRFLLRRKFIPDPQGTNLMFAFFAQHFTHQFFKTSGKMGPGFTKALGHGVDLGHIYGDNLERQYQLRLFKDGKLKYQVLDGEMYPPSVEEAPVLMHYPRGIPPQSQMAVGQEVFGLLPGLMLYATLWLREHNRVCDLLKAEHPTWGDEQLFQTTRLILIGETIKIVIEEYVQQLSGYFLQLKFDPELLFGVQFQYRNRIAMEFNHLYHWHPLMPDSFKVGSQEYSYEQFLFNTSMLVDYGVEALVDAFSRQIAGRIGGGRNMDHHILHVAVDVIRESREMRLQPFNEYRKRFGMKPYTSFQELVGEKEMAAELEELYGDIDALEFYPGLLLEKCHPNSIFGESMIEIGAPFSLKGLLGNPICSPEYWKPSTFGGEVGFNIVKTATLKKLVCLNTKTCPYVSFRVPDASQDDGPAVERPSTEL

As to `CS(=O)(=O)c1ccc(-c2sn[n+]([O-])c2-c2ccccc2)cc1` [Example 1, 4-PHENYL-5-(4-(METHYLSULFONYL)PHENYL-1-2-3--THIADIAZOL-3-OXIDE], the figures for the IC50 on COX-1 and on COX-2 were 38000 nM and 600 nM, respectively. The ED50 in experiment [1] is 0.9 mg/kg.
For `CS(=O)(=O)c1ccc(-c2sn[n+]([O-])c2-c2ccc(F)cc2)cc1` [Example 2, 4-(4-FLUOROPHENYL)-5-(4-(METHYLSULFONYL)PHENYL-1-2-3-THIADIAZOL-3-OXIDE], in that order: 18000 nM, 600 nM and 0.5 mg/kg.
Regarding `CS(=O)(=O)c1ccc(-c2sn[n+]([O-])c2-c2cccc(F)c2)cc1` [Example 3, 4-(3-FLUOROPHENYL)-5-(4-(METHYLSULFONYL)PHENYL-1-2-3-THIADIAZOL-3-OXIDE], the half-maximal inhibitory concentration (IC50) at COX-1 stood at 88000 nM; at COX-2, 1300 nM.
As for `CS(=O)(=O)c1ccc(-c2sn[n+]([O-])c2-c2ccc(F)c(F)c2)cc1` [Example 4, 4-(3,4-DIFLUOROPHENYL)-5-(4-(METHYLSULFONYL)PHENYL-1-2-3-THIADIAZOL-3-OXIDE], the IC50 against COX-1 came to 57000 nM; at COX-2, 500 nM.
Consider `CS(=O)(=O)c1ccc(-c2sn[n+]([O-])c2-c2cccc(Cl)c2)cc1` [Example 5, 4-(3-CHLOROPHENYL)-5-(4-(METHYLSULFONYL)PHENYL-1-2-3-THIADIAZOL-3-OXIDE], for which the ED50 in experiment [1] stood at 1.5 mg/kg. This compound also gave a half-inhibitory concentration (IC50) at COX-2 of 500 nM.
For `COc1ccc2c(c1)c(CC(=O)O)c(C)n2C(=O)c1ccc(Cl)cc1` [Indomethacin, reference compound], the median effective dose (ED50) in experiment [1] is 2 mg/kg.
